SMILES strings stand for the structures.

For the assay, the system named is fleas (Ctenocephalides felis). The assay can be described thus: In vitro evaluation of ingestion activity against fleas. The following applies: flea ingestion test, compound in organic bovine blood (0.5% DMSO), adult fleas, percent mortality between 2 h and 48 h post infestation, read-out: EC50 (the source's name). How it is done:
In Vitro Evaluation of Ingestion Activity Against Fleas (Ctenocephalides felis)
For flea ingestion tests, serial dilutions of the compound stock were performed using DMSO to achieve the desired range for EC50 and EC90 determination. An aliquot of each compound dilution was added to organic bovine blood with a final DMSO concentration of 0.5% and placed in an artificial feeding container. Fipronil is included to serve as a positive control. Ten newly emerged unfed adult fleas, 0-7 days old Ctenocephalides felis, from a laboratory colony, were aspirated into each vial or cage. The cages for flea ingestion assays were held in a temperature-controlled artificial feeding apparatus to allow continual access to organic bovine blood containing the desired concentration of compound. Fresh aliquots of compound-spiked bovine blood were provided daily for the duration of the study. Fleas were evaluated for percent mortality at various time points between 2 h and 48 h post infestation. Fleas showing normal movement and/or jumping ability were considered viable and those showing no movement after tapping the vials were scored as dead.
As to `Cc1cc(C2=NOC(c3cc(C(F)(F)F)cc(Cl)c3F)(C(F)(F)F)C2)ccc1C(=O)NCC(=O)NCC1CC1` (racemic) [Example 3.8, N-[2-(cyclopropylmethylamino)-2-oxo-ethyl]-2-methyl-4-[(5RS)-5-[3-chloro-2-fluoro-5-(trifluoromethyl)phenyl]-5-(trifluoromethyl)-4H-isoxazol-3-yl]benzamide], the LC50 is < 1 µg/mL.
Next, `Cc1cc(C2=NOC(c3cc(C(F)(F)F)cc(Cl)c3F)(C(F)(F)F)C2)ccc1C(=O)NC1CCN(C2CC2)C1=O` (racemic) [Example 3.15, 2-methyl-4-[(5RS)-5-[3-chloro-2-fluoro-5-(trifluoromethyl)phenyl]-5-(trifluoromethyl)-4H-isoxazol-3-yl]-N-[(3RS)-1-cyclopropyl-2-oxo-pyrrolidin-3-yl]benzamide]: < 3 µg/mL; `Cc1cc(C2=NOC(c3cc(C(F)(F)F)cc(Cl)c3F)(C(F)(F)F)C2)ccc1C(=O)NCc1nc(C#N)cs1` (racemic) [Example 3.23, N-[(4-cyanothiazol-2-yl)methyl]-2-methyl-4-[(5RS)-5-[3-chloro-2-fluoro-5-(trifluoromethyl)phenyl]-5-(trifluoromethyl)-4H-isoxazol-3-yl]benzamide]: < 1 µg/mL.
To `Cc1cc(C2=NOC(c3cc(C(F)(F)F)cc(Cl)c3F)(C(F)(F)F)C2)ccc1C(=O)NN1CCNC1=O` (racemic) [Example 3.25, 2-methyl-N-(2-oxoimidazolidin-1-yl)-4-[(5RS)-5-[3-chloro-2-fluoro-5-(trifluoromethyl)phenyl]-5-(trifluoromethyl)-4H-isoxazol-3-yl]benzamide] belongs < 3 µg/mL; to `Cc1cc(C2=NOC(c3cc(C(F)(F)F)cc(Cl)c3F)(C(F)(F)F)C2)ccc1C(=O)NN1CCN(CC(F)(F)F)C1=O` (racemic) [Example 3.26, 2-methyl-N-[2-oxo-3-(2,2,2-trifluoroethyl)imidazolidin-1-yl]-4-[(5RS)-5-[3-chloro-2-fluoro-5-(trifluoromethyl)phenyl]-5-(trifluoromethyl)-4H-isoxazol-3-yl]benzamide], < 3 µg/mL; to `CO[C@H]1C[C@@H](NC(=O)c2ccc(C3=NOC(c4cc(C(F)(F)F)cc(Cl)c4F)(C(F)(F)F)C3)cc2C)C1` (mixture of isomers) [Example 3.47, 4-[(5RS)-5-[3-chloro-2-fluoro-5-(trifluoromethyl)phenyl]-5-(trifluoromethyl)-4H-isoxazol-3-yl]-N-(cis-3-methoxycyclobutyl)-2-methyl-benzamide], < 3 µg/mL.
Take `Cc1cc(C2=NOC(c3cc(C(F)(F)F)cc(Cl)c3F)(C(F)(F)F)C2)ccc1C(=O)N[C@H]1C[C@@H](S(C)(=O)=O)C1` (single isomer, unassigned) [Example 3.49, 4-[(5R or S)-5-[3-chloro-2-fluoro-5-(trifluoromethyl)phenyl]-5-(trifluoromethyl)-4H-isoxazol-3-yl]-2-methyl-N-((cis)3-methylsulfonylcyclobutyl) benzamide]: the LC50 is < 1 µg/mL.
`Cc1cc(C2=NOC(c3cc(C(F)(F)F)cc(Cl)c3F)(C(F)(F)F)C2)ccc1C(=O)NC1CC(F)C1` (single isomer, unassigned) [Example 3.50, N-(3-fluorocyclobutyl)-2-methyl-4-[(5R or S)-5-[3-chloro-2-fluoro-5-(trifluoromethyl)phenyl]-5-(trifluoromethyl)-4H-isoxazol-3-yl]benzamide]: the LC50 is < 1 µg/mL.
As for `Cc1cc(C2=NOC(c3cc(C(F)(F)F)cc(Cl)c3F)(C(F)(F)F)C2)ccc1C(=O)NC1CSC1` (single isomer, unassigned) [Example 3.51, 2-methyl-4-[(5R or S)-5-[3-chloro-2-fluoro-5-(trifluoromethyl)phenyl]-5-(trifluoromethyl)-4H-isoxazol-3-yl]-N-(thietan-3-yl)benzamide], the LC50 was < 1 µg/mL.
Take `Cc1cc(C2=NOC(c3cc(C(F)(F)F)cc(Cl)c3F)(C(F)(F)F)C2)ccc1C(=O)NC1CS(=O)(=O)C1` (single isomer, unassigned) [Example 3.52, 4-[(5R or S)-5-[3-chloro-2-fluoro-5-(trifluoromethyl)phenyl]-5-(trifluoromethyl)-4H-isoxazol-3-yl]-N-(1,1-dioxothietan-3-yl)-2-methyl-benzamide]: the LC50 was < 1 µg/mL.
To `Cc1cc(C2=NOC(c3cc(C(F)(F)F)cc(Cl)c3F)(C(F)(F)F)C2)ccc1C(=O)N[C@@H]1CNC1=O` (single isomer, unassigned) [Example 3.53, 4-[(5R or S)-5-[3-chloro-2-fluoro-5-(trifluoromethyl)phenyl]-5-(trifluoromethyl)-4H-isoxazol-3-yl]-2-methyl-N-[(3R)-2-oxoazetidin-3-yl]benzamide] belongs < 1 µg/mL; to `Cc1cc(C2=NOC(c3cc(C(F)(F)F)cc(Cl)c3F)(C(F)(F)F)C2)ccc1C(=O)NC1C[S+]([O-])C1` (single isomer, unassigned) [Example 3.55], < 1 µg/mL.
To `Cc1cc(C2=NOC(c3cc(C(F)(F)F)cc(Cl)c3F)(C(F)(F)F)C2)ccc1C(=O)NC1CN(S(=O)(=O)C(F)(F)F)C1` (single isomer, unassigned) [Example 3.61, 2-methyl-4-[(5R or S)-5-[3-chloro-2-fluoro-5-(trifluoromethyl)phenyl]-5-(trifluoromethyl)-4H-isoxazol-3-yl]-N-[1-(trifluoromethylsulfonyl)azetidin-3-yl]benzamide] belongs < 3 µg/mL; to `Cc1cc(C2=NOC(c3cc(C(F)(F)F)cc(Cl)c3F)(C(F)(F)F)C2)ccc1C(=O)NC1CC2(COC2)C1` (single isomer, unassigned) [Example 3.62, 2-methyl-N-(2-oxaspiro[3.3]heptan-6-yl)-4-[(5R or S)-5-[3-chloro-2-fluoro-5-(trifluoromethyl)phenyl]-5-(trifluoromethyl)-4H-isoxazol-3-yl]benzamide], < 1 µg/mL.
Next, `Cc1cc(C2=NO[C@](c3cc(C(F)(F)F)cc(Cl)c3F)(C(F)(F)F)C2)ccc1C(=O)N[C@H]1C[C@H](C(F)(F)F)C1` (single isomer, unassigned) [Example 3.65, 2-methyl-4-[(5R or S)-5-[3-chloro-2-fluoro-5-(trifluoromethyl)phenyl]-5-(trifluoromethyl)-4H-isoxazol-3-yl]-N-[trans-3-(trifluoromethyl)cyclobutyl] benzamide]: < 1 µg/mL; `Cc1cc(C2=NOC(c3cc(C(F)(F)F)cc(Cl)c3F)(C(F)(F)F)C2)ccc1C(=O)NC1CN(S(=O)(=O)N(C)C)C1` (single isomer, unassigned) [Example 3.66, N-[1-(dimethylsulfamoyl)azetidin-3-yl]-2-methyl-4-[(5R or S)-5-[3-chloro-2-fluoro-5-(trifluoromethyl)phenyl]-5-(trifluoromethyl)-4H-isoxazol-3-yl]benzamide]: < 1 µg/mL.
For the compound `Cc1cc(C2=NOC(c3cc(C(F)(F)F)cc(Cl)c3F)(C(F)(F)F)C2)ccc1C(=O)NC1CN(C(N)=O)C1` (single isomer, unassigned) [Example 3.71, 3-[[2-methyl-4-[(5S or R)-5-[3-chloro-2-fluoro-5-(trifluoromethyl)phenyl]-5-(trifluoromethyl)-4H-isoxazol-3-yl]benzoyl]amino]azetidine-1-carboxamide], the LC50 is < 1 µg/mL.
Regarding `Cc1cc(C2=NOC(c3cc(C(F)(F)F)cc(Cl)c3F)(C(F)(F)F)C2)ccc1C(=O)N[C@H]1CN(CC(F)(F)F)C1=O` (single isomer, unassigned) [Example 3.72, 4-[(5R or S)-5-[3-chloro-2-fluoro-5-(trifluoromethyl)phenyl]-5-(trifluoromethyl)-4H-isoxazol-3-yl]-2-methyl-N-[(3S)-2-oxo-1-(2,2,2-trifluoroethyl)azetidin-3-yl]benzamide], the LC50 was < 3 µg/mL.
To `Cc1cc(C2=NOC(c3cc(C(F)(F)F)cc(Cl)c3F)(C(F)(F)F)C2)ccc1C(=O)N[C@@H]1CN(CC(F)(F)F)C1=O` (single isomer, unassigned) [Example 3.73, 4-[(5R or S)-5-[3-chloro-2-fluoro-5-(trifluoromethyl)phenyl]-5-(trifluoromethyl)-4H-isoxazol-3-yl]-2-methyl-N-[(3R)-2-oxo-1-(2,2,2-trifluoroethyl)azetidin-3-yl]benzamide] belongs < 1 µg/mL.
With `Cc1cc(C2=NO[C@](c3cc(C(F)(F)F)cc(Cl)c3F)(C(F)(F)F)C2)ccc1C(=O)N[C@H]1C[C@@H](C(F)(F)F)C1` (single isomer, unassigned) [Example 3.74, 2-methyl-4-[(5R or S)-5-[3-chloro-2-fluoro-5-(trifluoromethyl)phenyl]-5-(trifluoromethyl)-4H-isoxazol-3-yl]-N-[cis-3-(trifluoromethyl)cyclobutyl] benzamide], the LC50 was < 1 µg/mL.
On to `Cc1cc(C2=NOC(c3cc(C(F)(F)F)cc(Cl)c3F)(C(F)(F)F)C2)ccc1C(=O)Nc1cnn(CC#N)c1` (single isomer, unassigned) [Example 3.75, N-[1-(cyanomethyl)pyrazol-4-yl]-2-methyl-4-[(5S or R)-5-[3-chloro-2-fluoro-5-(trifluoromethyl)phenyl]-5-(trifluoromethyl)-4H-isoxazol-3-yl]benzamide], for which the LC50 is < 3 µg/mL.
For the compound `Cc1cc(C2=NOC(c3cc(C(F)(F)F)cc(Cl)c3F)(C(F)(F)F)C2)ccc1C(=O)N[C@@H]1CCN(CC#N)C1` (single isomer, unassigned) [Example 3.76, 4-[(5S or R)-5-[3-chloro-2-fluoro-5-(trifluoromethyl)phenyl]-5-(trifluoromethyl)-4H-isoxazol-3-yl]-N-[(3R)-1-(cyanomethyl)pyrrolidin-3-yl]-2-methyl-benzamide], the LC50 is < 1 µg/mL.
